# Measured values taken from patent US20110184147A1, “ENZYME SUBSTRATE FOR LABELING OF PROTEIN” (priority 2008, published 2011).
# Target: T1, MTG (Streptomyces mobaraensis, UniProt P81453)
# T1 construct: purchased AJINOMOTO (supplied as a gift)
# Assay: MTG-catalyzed introduction of fluorescent substrate into anti-PSA IgG antibody (optimization, substrate comparison)
# Assay type: biochemical, microbial
# Procedure: To a 50 mM buffer whose pH was varied over the range from 5 to 9 (pH 5 acetate buffer; pH 6-7 phosphate buffer; pH 8 Tris-HCl; pH 9 boric acid buffer), FITC-β-Ala-QG, an anti-PSA (prostate specific antigen) IgG antibody (mouse-derived, monoclonal) and MTG were added to give respective final concentrations of 0.1 mM, 0.5 mg/ml, and 1 U/ml. These ingredients were well stirred and left to stand at 4° C. for reaction. After 1-hr or 6-hr reaction, the sample was mixed with a sample buffer and heated at 95° C. for 15 minutes to stop the reaction. Thereafter, SDS-polyacrylamide gel electrophoresis (SDS-PAGE) was applied. The gel from SDS-PAGE was stained with Coomassie Brilliant Blue (CBB) and observed with a fluorescent imager.
# To 50 mM Tris-HCl (pH 8), FITC-β-Ala-QG, an anti-PSA IgG antibody and MTG were added to give respective final concentrations of 1 mM, 0.5 mg/ml, and 0.001-1 U/ml. These ingredients were well stirred and left to stand at 4° C. for reaction. The reaction was stopped and evaluation was made by the same procedures as in Experiment 2-1.
# To 50 mM Tris-HCl (pH 8), FITC-β-Ala-QG, an anti-PSA IgG antibody and MTG were added to give respective final concentrations of 0.001-1 mM, 0.5 mg/ml, and 1 U/ml. These ingredients were well stirred and left to stand at 4° C. for reaction. The reaction was stopped and evaluation was made by the same procedures as in Experiment 2-1.
# To PBS, FITC-β-Ala-QG, an anti-PSA IgG antibody (mouse-derived, monoclonal) and MTG were added to give respective final concentrations of 1 mM, 0.5 mg/ml, and 1 U/ml. These ingredients were well stirred and left to stand at 4° C. or 40° C. for reaction. After 3-, 6- and 18-hr reactions, the reaction was stopped and evaluation was made by the same procedures as in Experiment 2-1.
# To PBS, FITC-β-Ala-QG, an anti-PSA IgG antibody (mouse-derived, monoclonal) and MTG were added to give respective final concentrations of 1 mM, 0.5 mg/ml, and 1 U/ml. These ingredients were well stirred and left to stand for 18 hours at 4° C. for reaction. For the purpose of comparison, two additional samples were prepared, one being free of FITC-β-Ala-QG-biotin and the other having been reacted with a biotin-free fluorescent substrate (FITC-β-Ala-QG). After the reaction, the samples were purified by ultrafiltration (product of MILLIPORE Corp.; 100 kDa cut).
# T1 sequence (P81453 77-407): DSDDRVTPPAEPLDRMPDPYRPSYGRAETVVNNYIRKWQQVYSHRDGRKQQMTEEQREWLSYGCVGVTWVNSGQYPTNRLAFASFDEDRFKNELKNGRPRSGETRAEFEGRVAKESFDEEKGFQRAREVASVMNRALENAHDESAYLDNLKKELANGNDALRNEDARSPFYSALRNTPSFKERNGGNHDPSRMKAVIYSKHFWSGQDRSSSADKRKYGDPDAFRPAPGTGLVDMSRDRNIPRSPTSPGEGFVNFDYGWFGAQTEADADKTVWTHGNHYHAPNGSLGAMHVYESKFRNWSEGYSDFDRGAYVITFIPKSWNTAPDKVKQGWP
compound,measurement,setting,value
NC(=O)CCC(NC(=O)CCNC(=S)Nc1ccc(-c2c3ccc(=O)cc-3oc3cc(O)ccc23)c(C(=O)O)c1)C(=O)NCC(=O)O (stereo not drawn) [FITC-β-Ala-QG],pH of highly efficient introduction into antibody,"anti-PSA IgG antibody, substrate 0.1 mM, MTG 1 U/ml, 4° C., 1 and 6 hours",~7
same,Substrate concentration dependency of antibody labeling,"anti-PSA IgG antibody, substrate 0.001-1 mM, MTG 1 U/ml, pH 8, 4° C.",proceeded with the increasing substrate concentration
same,MTG concentration at which a highly efficient reaction proceeded,"anti-PSA IgG antibody, substrate 1 mM, pH 8, 4° C., MTG 0.001-1 U/ml",1 U
same,Introduction into the antibody,before the addition of the resin (lanes 1-3),verified the introduction
